Measured values taken from patent US6270799A, “Medicament formulation with a controlled release of an active agent” (Bayer Aktiengesellscahft, priority 1997, dated 2001).

What was measured:
[1] = system: gram-negative and gram-positive bacteria; conditions: against gram-negative and gram-positive bacteria; relative to sparfloxacin and ciprofloxacin; Drugs of the Future 1997, 22 (2): 109/113; cited from earlier work
[2] = water solubility; type: physicochemical; conditions: compound I and/or its salts and/or hydrates
[3] = absorption behaviour in the lower sections of the intestine; type: in vivo; conditions: in contrast to ciprofloxacin
Text: It was therefore the object of the present invention to develop a drug formulation of the compound I and pharmaceutically tolerable salts thereof and/or their hydrates which meets the requirements described above. […] Only this surprising absorption behaviour of moxifloxacin, which is different from known quinolonecarboxylic acid antibiotics, opens up any possibility of developing a retard formulation of moxifloxacin.

Row | SMILES | antibacterial action [1] | solubility [2] [mg/mL] | absorption in the lower sections of the intestine (colon, rectum) [3]
1 | COc1c(N2C[C@@H]3CCCN[C@@H]3C2)c(F)cc2c(=O)c(C(=O)O)cn(C3CC3)c12 [compound I, 1-cyclopropyl-7-([S,S]-2,8-diazabicyclo[4.3. 0]non-8-yl)-6-fluoro-1,4-dihydro-8-methoxy-4-oxo-3-quino-lonecarboxylic acid] | frequently significantly better than that of sparfloxacin and ciprofloxacin | ~24 | –
2 | COc1c(N2C[C@@H]3CCCN[C@@H]3C2)c(F)cc2c(=O)c(C(=O)O)cn(C3CC3)c12 [compound II] | – | – | also absorbed in the lower sections of the intestine (colon, rectum)
